Test results from PubChem BioAssay AID1963846 (Molecular Pharmacology Branch, DTP, NCI, 2024).

System: 454973-116-R2-J3-PDC complex spheroid viability
Assay: Anticancer human tumor 454973-116-R2-J3-PDC patient-derived pancreatic carcinoma cell line growth inhibition [POLQ]
Settings: for IC50: curve of first compound; for viability, T/C: stronger effect = lower value
Procedure, shortened: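 Complex spheroid viability model combining PDC tumour cells with endothelial (HUVEC) and MSC stromal cells. Novobiocin, ART-558 or RP6685 were tested singly and in combination with standard and investigational anticancer drugs. Each was titrated in half-log steps from near clinical Cmax, or from 10 microM where Cmax was unknown.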

[1] = second compound 0.0316 µM, first compound 0.0316 µM
[2] = second compound 0.0316 µM, first compound 0.1 µM
[3] = second compound 0.0316 µM, first compound 0.316 µM
[4] = second compound 0.0316 µM, first compound 1 µM
[5] = second compound 0.0316 µM, first compound 3.16 µM
[6] = second compound 0.0316 µM, first compound 10 µM
[7] = second compound 0.1 µM, first compound 0.0316 µM
[8] = second compound 0.1 µM, first compound 0.1 µM
[9] = second compound 0.1 µM, first compound 0.316 µM
[10] = second compound 0.1 µM, first compound 1 µM
[11] = second compound 0.1 µM, first compound 3.16 µM
[12] = second compound 0.1 µM, first compound 10 µM
[13] = second compound 0.316 µM, first compound 0.0316 µM
[14] = second compound 0.316 µM, first compound 0.1 µM
[15] = second compound 0.316 µM, first compound 0.316 µM
[16] = second compound 0.316 µM, first compound 1 µM
[17] = second compound 0.316 µM, first compound 3.16 µM
[18] = second compound 0.316 µM, first compound 10 µM
[19] = second compound 1 µM, first compound 0.0316 µM
[20] = second compound 1 µM, first compound 0.1 µM
[21] = second compound 1 µM, first compound 0.316 µM
[22] = second compound 1 µM, first compound 1 µM
[23] = second compound 1 µM, first compound 3.16 µM
[24] = second compound 1 µM, first compound 10 µM
[25] = second compound 3.16 µM, first compound 0.0316 µM
[26] = second compound 3.16 µM, first compound 0.1 µM
[27] = second compound 3.16 µM, first compound 0.316 µM
[28] = second compound 3.16 µM, first compound 1 µM
[29] = second compound 3.16 µM, first compound 3.16 µM
[30] = second compound 3.16 µM, first compound 10 µM
[31] = second compound 10 µM, first compound 0.0316 µM
[32] = second compound 10 µM, first compound 0.1 µM
[33] = second compound 10 µM, first compound 0.316 µM
[34] = second compound 10 µM, first compound 1 µM
[35] = second compound 10 µM, first compound 3.16 µM
[36] = second compound 10 µM, first compound 10 µM
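Further: spheroids exposed to drugs for seven days before measurement.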
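Wherever viability, T/C is given: percent viability relative to DMSO vehicle control wells taken as 100%.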

Compound: O=C(Nc1ccc(O)c(NS(=O)(=O)c2ccc(F)cc2)c1)c1ccc(-c2ccccc2)cc1 + Nc1ccc(C#CCN(C(=O)Cc2ncc(C(F)(F)F)cc2C(F)(F)F)c2ccc(F)cc2)nn1
- IC50 (second compound 0.0316 µM): > 10 µM
- IC50 (second compound 0.1 µM): > 10 µM
- IC50 (second compound 0.316 µM): > 10 µM
- IC50 (second compound 1 µM): > 10 µM
- IC50 (second compound 3.16 µM): > 10 µM
- IC50 (second compound 10 µM): > 10 µM
- viability, T/C [1]: 109%
- viability, T/C [2]: 107%
- viability, T/C [3]: 108%
- viability, T/C [4]: 114%
- viability, T/C [5]: 108%
- viability, T/C [6]: 86.5%
- viability, T/C [7]: 101%
- viability, T/C [8]: 107%
- viability, T/C [9]: 110%
- viability, T/C [10]: 103%
- viability, T/C [11]: 103%
- viability, T/C [12]: 89.9%
- viability, T/C [13]: 105%
- viability, T/C [14]: 104%
- viability, T/C [15]: 109%
- viability, T/C [16]: 107%
- viability, T/C [17]: 110%
- viability, T/C [18]: 89.2%
- viability, T/C [19]: 110%
- viability, T/C [20]: 108%
- viability, T/C [21]: 111%
- viability, T/C [22]: 112%
- viability, T/C [23]: 109%
- viability, T/C [24]: 80.9%
- viability, T/C [25]: 107%
- viability, T/C [26]: 106%
- viability, T/C [27]: 106%
- viability, T/C [28]: 120%
- viability, T/C [29]: 123%
- viability, T/C [30]: 86.8%
- viability, T/C [31]: 123%
- viability, T/C [32]: 112%
- viability, T/C [33]: 112%
- viability, T/C [34]: 120%
- viability, T/C [35]: 109%
- viability, T/C [36]: 85.5%

Compound: CCCS(=O)(=O)Nc1ccc(F)c(C(=O)c2c[nH]c3ncc(-c4ccc(Cl)cc4)cc23)c1F + COC1C(OC(N)=O)C(O)C(Oc2ccc3c(O)c(NC(=O)c4ccc(O)c(CC=C(C)C)c4)c(=O)oc3c2C)OC1(C)C
- IC50 (second compound 0.0316 µM): 9.52 µM
- IC50 (second compound 0.1 µM): > 10 µM
- IC50 (second compound 0.316 µM): > 10 µM
- IC50 (second compound 1 µM): > 10 µM
- IC50 (second compound 3.16 µM): > 10 µM
- IC50 (second compound 10 µM): > 10 µM
- viability, T/C [1]: 98.9%
- viability, T/C [2]: 106%
- viability, T/C [3]: 101%
- viability, T/C [4]: 114%
- viability, T/C [5]: 110%
- viability, T/C [6]: 47.5%
- viability, T/C [7]: 98.9%
- viability, T/C [8]: 118%
- viability, T/C [9]: 103%
- viability, T/C [10]: 113%
- viability, T/C [11]: 109%
- viability, T/C [12]: 54.8%
- viability, T/C [13]: 107%
- viability, T/C [14]: 114%
- viability, T/C [15]: 103%
- viability, T/C [16]: 110%
- viability, T/C [17]: 103%
- viability, T/C [18]: 57.3%
- viability, T/C [19]: 120%
- viability, T/C [20]: 107%
- viability, T/C [21]: 109%
- viability, T/C [22]: 117%
- viability, T/C [23]: 108%
- viability, T/C [24]: 57.3%
- viability, T/C [25]: 112%
- viability, T/C [26]: 109%
- viability, T/C [27]: 103%
- viability, T/C [28]: 106%
- viability, T/C [29]: 105%
- viability, T/C [30]: 62.8%
- viability, T/C [31]: 114%
- viability, T/C [32]: 104%
- viability, T/C [33]: 97.2%
- viability, T/C [34]: 106%
- viability, T/C [35]: 109%
- viability, T/C [36]: 65.5%

Compound: CNCc1ccc(-c2[nH]c3cc(F)cc4c3c2CCNC4=O)cc1 + Cc1cccc(N(C)C(=O)C2C(O)CCN2c2nc(C)cc(C(F)(F)F)c2C#N)c1
- IC50 (second compound 0.0316 µM): > 10 µM
- IC50 (second compound 0.1 µM): > 10 µM
- IC50 (second compound 0.316 µM): > 10 µM
- IC50 (second compound 1 µM): > 10 µM
- IC50 (second compound 3.16 µM): > 10 µM
- IC50 (second compound 10 µM): > 10 µM
- viability, T/C [1]: 110%
- viability, T/C [2]: 96.1%
- viability, T/C [3]: 101%
- viability, T/C [4]: 103%
- viability, T/C [5]: 101%
- viability, T/C [6]: 79.1%
- viability, T/C [7]: 94%
- viability, T/C [8]: 108%
- viability, T/C [9]: 97.8%
- viability, T/C [10]: 102%
- viability, T/C [11]: 99.4%
- viability, T/C [12]: 83%
- viability, T/C [13]: 106%
- viability, T/C [14]: 102%
- viability, T/C [15]: 107%
- viability, T/C [16]: 98.9%
- viability, T/C [17]: 104%
- viability, T/C [18]: 85.8%
- viability, T/C [19]: 108%
- viability, T/C [20]: 111%
- viability, T/C [21]: 103%
- viability, T/C [22]: 97.2%
- viability, T/C [23]: 100%
- viability, T/C [24]: 86.6%
- viability, T/C [25]: 109%
- viability, T/C [26]: 105%
- viability, T/C [27]: 105%
- viability, T/C [28]: 106%
- viability, T/C [29]: 106%
- viability, T/C [30]: 82.9%
- viability, T/C [31]: 118%
- viability, T/C [32]: 105%
- viability, T/C [33]: 101%
- viability, T/C [34]: 95.6%
- viability, T/C [35]: 106%
- viability, T/C [36]: 74.9%
